Measured values as given in patent US20230372498A1, “PLK1 SELECTIVE DEGRADATION INDUCING COMPOUND” (UPPTHERA, priority 2020, published 2023).

Target: T1, PLK1 (Homo sapiens, UniProt P53350)
T1 construct: endogenous in cells; host or cells: HeLa
Assay: PLK1 protein degradation in HeLa cells, Western blotting (PLK1/GAPDH ratio)
Format: cell-based
Details: 6 hours compound incubation; for DC50: measured only if the grade of Dmax is A or B; for Dmax: thymidine block and release, 10 points three-fold from 3 μM, PLK1 to GAPDH ratio, read-out: Dmax
Procedure, shortened: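 Thymidine-synchronised HeLa cells (2 mM, 24 h) released 4 h into complete medium, then treated 6 h with compound in 10-point 3-fold dilutions from 3 μM. RIPA lysates (15 μg protein) run on SDS-PAGE; PLK1 Western blot normalised to GAPDH.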

T1 sequence (P53350 whole entry): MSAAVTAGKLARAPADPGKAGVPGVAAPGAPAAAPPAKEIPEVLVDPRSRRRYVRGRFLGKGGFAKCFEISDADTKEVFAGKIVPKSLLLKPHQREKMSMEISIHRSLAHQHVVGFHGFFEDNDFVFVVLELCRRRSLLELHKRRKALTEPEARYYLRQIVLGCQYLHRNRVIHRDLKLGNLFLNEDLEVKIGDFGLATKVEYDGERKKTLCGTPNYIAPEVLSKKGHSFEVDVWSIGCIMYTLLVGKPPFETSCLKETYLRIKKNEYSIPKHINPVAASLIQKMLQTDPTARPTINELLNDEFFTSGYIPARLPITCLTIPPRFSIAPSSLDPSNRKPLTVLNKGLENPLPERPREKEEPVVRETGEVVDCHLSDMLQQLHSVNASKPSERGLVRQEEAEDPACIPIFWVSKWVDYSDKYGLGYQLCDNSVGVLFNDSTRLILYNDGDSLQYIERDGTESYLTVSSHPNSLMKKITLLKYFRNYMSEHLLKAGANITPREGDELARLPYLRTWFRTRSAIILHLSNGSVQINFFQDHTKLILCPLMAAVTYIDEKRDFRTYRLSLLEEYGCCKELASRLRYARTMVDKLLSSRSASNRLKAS

DC50 [nM]	Dmax [%]	Compound
≤ 50	≥ 80	COc1cc(C(=O)NC2CCN(CC(=O)NCCOCCNc3cccc4c3C(=O)N(C3CCC(=O)NC3=O)C4=O)CC2)c(F)cc1Nc1ncc2c(n1)N(C1CCCC1)CC(F)(F)C(=O)N2C (stereo not drawn) [Compound 35, 4-((9-cyclopentyl-7,7-difluoro-5-methyl-6-oxo-6,7,8,9-tetrahydro-5H-pyrimido[4,5-b][1,4]diazepin-2-yl)amino)-N-(1-(2-((2-(2-((2-(2,6-dioxopiperidin-3-yl)-1,3-dioxoisoindolin-4-yl)amino)ethoxy)ethyl)amino)-2-oxoethyl)piperidin-4-yl)-2-fluoro-5-methoxybenzamide]
≤ 50	≥ 80	COc1cc(C(=O)NC2CCN(CC(=O)NCCOCCOCCOCCNc3cccc4c3C(=O)N(C3CCC(=O)NC3=O)C4=O)CC2)c(F)cc1Nc1ncc2c(n1)N(C1CCCC1)CC(F)(F)C(=O)N2C (stereo not drawn) [Compound 36, 4-((9-cyclopentyl-7,7-difluoro-5-methyl-6-oxo-6,7,8,9-tetrahydro-5H-pyrimido[4,5-b][1,4]diazepin-2-yl)amino)-N-(1-(14-((2-(2,6-dioxopiperidin-3-yl)-1,3-dioxoisoindolin-4-yl)amino)-2-oxo-6,9,12-trioxa-3-azatetradecyl)piperidin-4-yl)-2-fluoro-5-methoxybenzamide]

Second part, the molecule before the results:

Compound	DC50 [nM]	Dmax [%]
COc1cc(C(=O)NC2CCN(C(=O)CCOCCNc3cccc4c3C(=O)N(C3CCC(=O)NC3=O)C4=O)CC2)c(F)cc1Nc1ncc2c(n1)N(C1CCCC1)CC(F)(F)C(=O)N2C (stereo not drawn) [Compound 32, 4-((9-cyclopentyl-7,7-difluoro-5-methyl-6-oxo-6,7,8,9-tetrahydro-5H-pyrimido[4,5-b][1,4]diazepin-2-yl)amino)-N-(1-(3-(2-((2-(2,6-dioxopiperidin-3-yl)-1,3-dioxoisoindolin-4-yl)amino)ethoxy)propanoyl)piperidin-4-yl)-2-fluoro-5-methoxybenzamide]	≤ 50	≥ 80
COc1cc(C(=O)NC2CCN(C(=O)COCCOCCNc3cccc4c3C(=O)N(C3CCC(=O)NC3=O)C4=O)CC2)c(F)cc1Nc1ncc2c(n1)N(C1CCCC1)CC(F)(F)C(=O)N2C (stereo not drawn) [Compound 33, 4-((9-cyclopentyl-7,7-difluoro-5-methyl-6-oxo-6,7,8,9-tetrahydro-5H-pyrimido[4,5-b][1,4]diazepin-2-yl)amino)-N-(1-(2-(2-(2-((2-(2,6-dioxopiperidin-3-yl)-1,3-dioxoisoindolin-4-yl)amino)ethoxy)ethoxy)acetyl)piperidin-4-yl)-2-fluoro-5-methoxybenzamide]	≤ 50	≥ 80
COc1cc(C(=O)NC2CCN(C(=O)COCCOCCOCCOCCNc3cccc4c3C(=O)N(C3CCC(=O)NC3=O)C4=O)CC2)c(F)cc1Nc1ncc2c(n1)N(C1CCCC1)CC(F)(F)C(=O)N2C (stereo not drawn) [Compound 34, 4-((9-cyclopentyl-7,7-difluoro-5-methyl-6-oxo-6,7,8,9-tetrahydro-5H-pyrimido[4,5-b][1,4]diazepin-2-yl)amino)-N-(1-(14-((2-(2,6-dioxopiperidin-3-yl)-1,3-dioxoisoindolin-4-yl)amino)-3,6,9,12-tetraoxatetradecanoyl)piperidin-4-yl)-2-fluoro-5-methoxybenzamide]	≤ 50	≥ 80
COc1cc(C(=O)NC2CCN(CCCC(=O)Nc3cccc4c3C(=O)N(C3CCC(=O)NC3=O)C4=O)CC2)c(F)cc1Nc1ncc2c(n1)N(C1CCCC1)CC(F)(F)C(=O)N2C (stereo not drawn) [Compound 37, 4-((9-cyclopentyl-7,7-difluoro-5-methyl-6-oxo-6,7,8,9-tetrahydro-5H-pyrimido[4,5-b][1,4]diazepin-2-yl)amino)-N-(1-(4-((2-(2,6-dioxopiperidin-3-yl)-1,3-dioxoisoindolin-4-yl)amino)-4-oxobutyl)piperidin-4-yl)-2-fluoro-5-methoxybenzamide]	≤ 500	60 to 80
